The source of these data is ChEMBL document CHEMBL4152365, “Discovery of DS-6930, a potent selective PPARγ modulator. Part I: Lead identification” (Bioorg Med Chem, 2018).

In general, logD refers to the decadic logarithm of the distribution of all forms, ionised or not, between an organic phase and buffer at a given pH. In general, EC50 refers to the concentration giving half of the maximal effect.

In brackets after ≈: the same amount, converted by molar mass.

System in the first series: not listed separately
The experiment in a line: Metabolic stability in human liver microsomes after 0.5 hrs. To be noted: read-out: Stability. The series is classed as ADME, microsome. In general terms: Liver microsomes are a subcellular fraction often used to study metabolism.
For `Cc1cc(Oc2ccc3nc(COc4cccc(C(=O)O)c4)n(C)c3c2)ccc1F.Cl`, the remaining at 0.5 h came to 69%.
Take `Cc1ccc(F)cc1Oc1ccc2nc(COc3cccc(C(=O)O)c3)n(C)c2c1`: the remaining at 0.5 h was determined as 64%.
Consider `Cn1c(COc2cccc(C(=O)O)c2)nc2ccc(Oc3c(F)cccc3F)cc21`, for which the remaining at 0.5 h was found to be 85%.
Still for that read-out and setting: then `Cn1c(COc2cccc(C(=O)O)c2)nc2ccc(Oc3cccc(F)c3F)cc21`, with 88%.
In the case of `Cc1cc(Oc2ccc3nc(COc4cccc(C(=O)O)c4)n(C)c3c2)cc(C)c1N.Cl.Cl`, the remaining at 0.5 h is 88%.

The next series has as its system Mus musculus. The experiment in a line: Glucose-lowering effect in hyperglycemic KK/Ta mouse assessed as reduction in plasma glucose level at 30 mg/kg/day, po administered through diet for 3 days relative to control. The arrangement: scale not given: the % may be the effect or the level left. The series is classed as functional.
Details: not given
As to `Cl.Cn1c(COc2cccc(C(=O)O)c2)nc2ccc(Oc3ccc(F)c(Cl)c3)cc21`, the Activity is on record as 30%.
Still for that read-out and setting: to `Cc1cc(Oc2ccc3nc(COc4cccc(C(=O)O)c4)n(C)c3c2)ccc1F.Cl` belongs 49.4%; to `Cc1ccc(F)cc1Oc1ccc2nc(COc3cccc(C(=O)O)c3)n(C)c2c1`, 26.4%; to `Cn1c(COc2cccc(C(=O)O)c2)nc2ccc(Oc3cccc(F)c3F)cc21`, 35.8%.

Another series addresses T1, Peroxisome proliferator-activated receptor alpha (Homo sapiens) (UniProt Q07869).
T1 sequence (whole entry): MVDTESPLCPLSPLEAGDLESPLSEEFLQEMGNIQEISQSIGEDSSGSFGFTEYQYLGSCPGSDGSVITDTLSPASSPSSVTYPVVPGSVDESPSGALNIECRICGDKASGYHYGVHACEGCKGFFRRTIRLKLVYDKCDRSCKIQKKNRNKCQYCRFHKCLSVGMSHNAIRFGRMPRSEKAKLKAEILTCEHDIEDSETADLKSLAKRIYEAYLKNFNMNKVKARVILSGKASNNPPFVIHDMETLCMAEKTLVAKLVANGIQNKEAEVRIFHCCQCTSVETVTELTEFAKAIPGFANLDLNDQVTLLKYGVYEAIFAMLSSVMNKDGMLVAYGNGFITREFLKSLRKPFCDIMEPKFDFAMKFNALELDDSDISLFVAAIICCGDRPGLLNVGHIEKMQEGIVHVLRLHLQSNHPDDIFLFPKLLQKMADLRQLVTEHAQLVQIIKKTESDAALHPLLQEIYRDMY
The experiment in a line: Agonist activity at recombinant human GAL4-DBD fused PPARalpha LBD expressed in COS7 cells at 10 uM after 24 hrs by luciferase reporter gene assay relative to 2-(4-tert-Butylphenoxy)-3-[4-[2-[(4-pyridin-2-ylbenzoyl)amino]ethoxy]. The series is classed as cell-based.
Details: not given
`Cl.Cn1c(COc2cccc(C(=O)O)c2)nc2ccc(Oc3ccc(F)c(Cl)c3)cc21`: the Emax is 52%.
`Cc1cc(Oc2ccc3nc(COc4cccc(C(=O)O)c4)n(C)c3c2)ccc1F.Cl`: the Emax worked out at 28%.
As for `Cc1ccc(F)cc1Oc1ccc2nc(COc3cccc(C(=O)O)c3)n(C)c2c1`, the Emax came out at 17%.
Take `Cn1c(COc2cccc(C(=O)O)c2)nc2ccc(Oc3c(F)cccc3F)cc21`: the Emax came to 19%.
Turning to `Cn1c(COc2cccc(C(=O)O)c2)nc2ccc(Oc3cccc(F)c3F)cc21`, the Emax was 52%.

System in a further series: not listed separately
As to the kind of experiment: Aqueous thermodynamic solubility of the compound in pH 6.8 solution up to 4 hrs by HPLC-UV analysis. To be noted: read-out: Therm_solubility. The series is classed as physicochemical.
`Cc1ccc(F)cc1Oc1ccc2nc(COc3cccc(C(=O)O)c3)n(C)c2c1`: the solubility thermodynamic at 4 h came out at 0.6 µg/mL (≈ 1.48 µM).
For the molecule `Cc1cc(Oc2ccc3nc(COc4cccc(C(=O)O)c4)n(C)c3c2)cc(C)c1N.Cl.Cl`, the solubility thermodynamic at 4 h came out at 11 µg/mL.

The test system of the next series is Mus musculus. As to the kind of experiment: Toxicity in hyperglycemic KK/Ta mouse assessed as body weight gain at 30 mg/kg/day, po administered through diet for 3 days relative to control. The series is classed as organism-based. To be noted: in vivo, 72 h.
As to `Cl.Cn1c(COc2cccc(C(=O)O)c2)nc2ccc(Oc3ccc(F)c(Cl)c3)cc21`, the Activity turned out to be 3.7%.
`Cc1cc(Oc2ccc3nc(COc4cccc(C(=O)O)c4)n(C)c3c2)ccc1F.Cl`: the Activity is 3.5%.
Take `Cc1ccc(F)cc1Oc1ccc2nc(COc3cccc(C(=O)O)c3)n(C)c2c1`: the Activity is recorded as 5.1%.
With `Cn1c(COc2cccc(C(=O)O)c2)nc2ccc(Oc3cccc(F)c3F)cc21`, the Activity worked out at 4.3%.

System in the next series: not listed separately
The experiment in a line: 1-octanol/PBS distribution co-efficient, log D of the compound at […] at pH 7.4 after 30 mins by HPLC-MS/MS analysis. The series is classed as physicochemical.
Details: not given
In turn, `Cl.Cn1c(COc2cccc(C(=O)O)c2)nc2ccc(Oc3ccc(F)c(Cl)c3)cc21` came in with a logD at 0.5 h of 2.8.
`Cc1cc(Oc2ccc3nc(COc4cccc(C(=O)O)c4)n(C)c3c2)ccc1F.Cl` registered a log distribution coefficient (logD) at 0.5 h of 2.3.
On the same count and under the same terms, to `Cc1ccc(F)cc1Oc1ccc2nc(COc3cccc(C(=O)O)c3)n(C)c2c1` belongs 2.5; to `Cn1c(COc2cccc(C(=O)O)c2)nc2ccc(Oc3c(F)cccc3F)cc21`, 1.8.
`Cn1c(COc2cccc(C(=O)O)c2)nc2ccc(Oc3cccc(F)c3F)cc21` gave a logD at 0.5 h of 2.1.
Take `Cc1cc(Oc2ccc3nc(COc4cccc(C(=O)O)c4)n(C)c3c2)cc(C)c1N.Cl.Cl`: the logD at 0.5 h was determined as 1.4.

System in a further series: not listed separately
As to the kind of experiment: Plasma concentration in hyperglycemic KK/Ta mouse at 30 mg/kg/day, po administered through diet for 3 days measured on day 3 post last dose.
Details: not given
The series is classed as ADME, organism-based.
The molecule `Cl.Cn1c(COc2cccc(C(=O)O)c2)nc2ccc(Oc3ccc(F)c(Cl)c3)cc21` had a concentration at 72 h of 170 ng/mL.
Molecule `Cc1cc(Oc2ccc3nc(COc4cccc(C(=O)O)c4)n(C)c3c2)ccc1F.Cl` gave a concentration at 72 h of 190 ng/mL.

The target in a further series is T2, Peroxisome proliferator-activated receptor gamma (Homo sapiens) (UniProt P37231).
T2 sequence (whole entry): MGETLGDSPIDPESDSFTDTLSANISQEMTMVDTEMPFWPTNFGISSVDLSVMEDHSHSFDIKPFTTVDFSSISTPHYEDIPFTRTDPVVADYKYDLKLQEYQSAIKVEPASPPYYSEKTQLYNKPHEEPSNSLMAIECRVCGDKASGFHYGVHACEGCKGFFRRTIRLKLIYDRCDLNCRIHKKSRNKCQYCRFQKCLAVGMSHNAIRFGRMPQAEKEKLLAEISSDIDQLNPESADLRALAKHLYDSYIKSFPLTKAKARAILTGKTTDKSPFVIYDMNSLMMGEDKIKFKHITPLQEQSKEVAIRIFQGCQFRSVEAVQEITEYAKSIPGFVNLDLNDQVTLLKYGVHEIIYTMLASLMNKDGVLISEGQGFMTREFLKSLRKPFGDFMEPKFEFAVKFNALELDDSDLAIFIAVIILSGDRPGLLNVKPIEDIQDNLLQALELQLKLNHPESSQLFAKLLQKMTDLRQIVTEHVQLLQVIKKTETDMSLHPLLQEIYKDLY
As to the kind of experiment: Agonist activity at recombinant human GAL4-DBD fused PPARgamma LBD expressed in COS7 cells at 10 uM after 24 hrs by luciferase reporter gene assay relative to rosiglitazone. The series is classed as cell-based.
Details: not given
Regarding `Cl.Cn1c(COc2cccc(C(=O)O)c2)nc2ccc(Oc3ccc(F)c(Cl)c3)cc21`, the Emax came out at 79%.
On to `Cc1cc(Oc2ccc3nc(COc4cccc(C(=O)O)c4)n(C)c3c2)ccc1F.Cl`, for which the Emax turned out to be 61%.
As for `Cc1ccc(F)cc1Oc1ccc2nc(COc3cccc(C(=O)O)c3)n(C)c2c1`, the Emax was 84%.
In the case of `Cn1c(COc2cccc(C(=O)O)c2)nc2ccc(Oc3c(F)cccc3F)cc21`, the Emax was 76%.
As for `Cn1c(COc2cccc(C(=O)O)c2)nc2ccc(Oc3cccc(F)c3F)cc21`, the Emax came out at 86%.
The same measure, in the same setting: to `Cc1cc(Oc2ccc3nc(COc4cccc(C(=O)O)c4)n(C)c3c2)cc(C)c1N.Cl.Cl` belongs 73%.

The next series has as its target T3, Peroxisome proliferator-activated receptor gamma (Homo sapiens, UniProt P37231).
T3 sequence (P37231 whole entry): T2 sequence (whole entry)
As to the kind of experiment: Agonist activity at recombinant human GAL4-DBD fused PPARgamma LBD expressed in COS7 cells after 24 hrs by luciferase reporter gene assay. The series is classed as cell-based.
Details: not given
A general note: A reporter such as luciferase makes a cellular process visible.
Turning to `Cl.Cn1c(COc2cccc(C(=O)O)c2)nc2ccc(Oc3ccc(F)c(Cl)c3)cc21`, the EC50 is 64 nM.
On to `Cc1cc(Oc2ccc3nc(COc4cccc(C(=O)O)c4)n(C)c3c2)ccc1F.Cl`, for which the concentration for a half-maximal effect (EC50) was 62 nM.
Same read-out and setting: then `Cc1ccc(F)cc1Oc1ccc2nc(COc3cccc(C(=O)O)c3)n(C)c2c1`, with 39 nM; and `Cn1c(COc2cccc(C(=O)O)c2)nc2ccc(Oc3c(F)cccc3F)cc21`, with 1330 nM; and `Cn1c(COc2cccc(C(=O)O)c2)nc2ccc(Oc3cccc(F)c3F)cc21`, with 230 nM.

Another series deals with T4, Peroxisome proliferator-activated receptor alpha (Homo sapiens, UniProt Q07869).
T4 sequence (Q07869 whole entry): T1 sequence (whole entry)
As to the kind of experiment: Agonist activity at recombinant human GAL4-DBD fused PPARalpha LBD expressed in COS7 cells after 24 hrs by luciferase reporter gene assay.
Details: not given
The series is classed as cell-based.
Take `Cc1cc(Oc2ccc3nc(COc4cccc(C(=O)O)c4)n(C)c3c2)ccc1F.Cl`: the EC50 was over 10000 nM.
In the case of `Cc1ccc(F)cc1Oc1ccc2nc(COc3cccc(C(=O)O)c3)n(C)c2c1`, the EC50 was over 10000 nM.
Take `Cn1c(COc2cccc(C(=O)O)c2)nc2ccc(Oc3c(F)cccc3F)cc21`: the 50% effective concentration (EC50) is over 10000 nM.
